Assay results published in patent US6197963A, “Non-peptide peptidomimetics” (The Trustees of the University of Pennsylvania, priority 1998, dated 2001).
“Also recorded” adds a separate entry of the source. Where two headings read alike, the source gives them in different places. Blank lines part the entries; values can stand above or below the compound they belong to.

Experiments:
[1] = target: T1, human neurokinin-1 receptor (NK1R) (Homo sapiens, UniProt P25103); test: Displacement of 125I-substance P from human NK1R expressed in COS cells (Example 12); format: binding; details: 125I-substance P, COS cells (Example 12)
T1 construct: expressed in transfected cells; host or cells: COS cells
Experimental: The affinity of a variety of compounds for the substance P receptor was determined employing the following procedure.
To express the cloned human neurokinin-1 receptor (NK1R) transiently in COS, the cDNA for the human NK1R was cloned into the expression vector pCDM9 which was derived from pCDM8 (Invitrogen) by inserting the ampicillin resistance gene (nucleotide 1973 to 2964 from Bluescript SK+) into the Sac II site. Transfection of 20 μg of the plasmid DNA into 10 million COS cells was achieved by electroporation in 800 μl of the transfection buffer ([…], 1.2 mM MgCl2, 2.4 mM K2 HPO4, 0.6 mM KH2PO4, […], 10 mM HEPES pH 7.4) at 260 V and 950 μF using the IBI Genezapper (IBI, New Haven, Conn.). The cells were incubated in 10% fetal calf serum, 2 mM glutamine, 100 U/ml penicillin-streptomycin, and 90% DMEM media (Gibco, Grand Island, N.Y.) in 5% CO2 at 37° C. for three days before the binding assay.
The binding assay of human NK1R expressed in COS cells is based on the use of ^125 I-substance P (^125 I-SP, from DuPont, Boston, Mass.) as a radioactively labeled ligand which competes with unlabeled substance P or any other ligand for binding to the human NK1R. Monolayer cell cultures of COS were dissociated by the non-enzymatic solution (Specialty Media, Lavallette, N.J.) and resuspended in appropriate volume of the bind buffer (50 mM Tris pH 7.5, 5 mM MnCl2, 150 mM NaCl, 0.04 mg/ml bacitracin, 0.004 mg/ml leupeptin, 0.2 mg/ml BSA, 0.01 mM phosphoramidon) such that 200 μl of the cell suspension would give rise to about 10,000 cpm of specific ^125 I-SP binding (approximately 50,000 to 200,000 cells). In the binding assay, 200 μl of cells were added to a tube containing 20 μl of 1.5 to 2.5 nM of ^125 I-SP and 20 μl of unlabeled substance P or any other test compound. The tubes were incubated at 4° C. or at room temperature for 1 hour with gentle shaking. The bound radioactivity was separated from unbound radioactivity by GF/C filter (Brandel, Gaithersburg, Md.) which was pre-wetted with 0.1 polyethylenimine. The filter was washed with 3 ml of wash buffer (50 Tris pH 7.5, 5 mM MnCl2, 150 mM NaCl) three times and its radioactivity was determined by gamma counter.
A variety of compounds were tested according to the COS cell procedure. The concentration of compound required to inhibit the binding of substance P to the human neurokinin-1 receptor by 50% was measured.

[2] = target: NK-1 receptor (Homo sapiens, UniProt P25103); test: Binding at the NK-1 receptor (Examples 109-110)
[3] = test system: SRIF receptors on AtT-20 cells; test: Binding at SRIF receptors of AtT-20 cells (Examples 104-110, Tables 1-3); set-up: species or system mouse; key to AtT-20 cells IC50: DNB: Did Not Bind
[4] = target: hSSTR1 (Homo sapiens, UniProt P30872); test: Binding at human SRIF receptor subtype hSSTR1
[5] = target: hSSTR2 (Homo sapiens, UniProt P30874); test: Binding at human SRIF receptor subtype hSSTR2
[6] = target: hSSTR3 (Homo sapiens, UniProt P32745); test: Binding at human SRIF receptor subtype hSSTR3
[7] = target: hSSTR4 (Homo sapiens, UniProt P31391); test: Binding at human SRIF receptor subtype hSSTR4
[8] = target: hSSTR5 (Homo sapiens, UniProt P35346); test: Binding at human SRIF receptor subtype hSSTR5; details: for Ki: TABLE 3, read-out: hSSTR 5 Ki
[9] = test system: five hSSTRs; test: Profile / average over the five human SRIF receptor subtypes; format: binding
[10] = test system: SRIF receptor; test: Displacement of 125I-CGP-23996 from SRIF receptor on AtT-20 cells (Example 13); format: binding, mouse; details: displacement of 125I-CGP-23996, AtT-20 cells (Example 13)
[11] = read-out: IC50 at the NK-1 receptor
[12] = TABLE 1 (Example 105), read-out: AtT-20 cells 50 IC
[13] = read-out: IC50 at AtT-20 cell membranes
[14] = TABLE 3 (Example 108), read-out: AtT-20 IC50

hSSTR5, sequence (P35346 whole entry): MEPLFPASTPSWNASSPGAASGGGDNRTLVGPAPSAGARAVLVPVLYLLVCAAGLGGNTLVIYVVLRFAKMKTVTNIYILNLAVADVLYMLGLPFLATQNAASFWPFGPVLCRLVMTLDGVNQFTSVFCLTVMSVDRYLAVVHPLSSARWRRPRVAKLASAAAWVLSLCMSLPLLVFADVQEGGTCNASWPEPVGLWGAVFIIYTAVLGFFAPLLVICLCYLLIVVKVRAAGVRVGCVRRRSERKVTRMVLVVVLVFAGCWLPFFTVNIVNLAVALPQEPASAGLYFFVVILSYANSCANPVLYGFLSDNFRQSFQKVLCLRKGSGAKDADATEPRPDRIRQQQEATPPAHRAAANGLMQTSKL
hSSTR3, sequence (P32745 whole entry): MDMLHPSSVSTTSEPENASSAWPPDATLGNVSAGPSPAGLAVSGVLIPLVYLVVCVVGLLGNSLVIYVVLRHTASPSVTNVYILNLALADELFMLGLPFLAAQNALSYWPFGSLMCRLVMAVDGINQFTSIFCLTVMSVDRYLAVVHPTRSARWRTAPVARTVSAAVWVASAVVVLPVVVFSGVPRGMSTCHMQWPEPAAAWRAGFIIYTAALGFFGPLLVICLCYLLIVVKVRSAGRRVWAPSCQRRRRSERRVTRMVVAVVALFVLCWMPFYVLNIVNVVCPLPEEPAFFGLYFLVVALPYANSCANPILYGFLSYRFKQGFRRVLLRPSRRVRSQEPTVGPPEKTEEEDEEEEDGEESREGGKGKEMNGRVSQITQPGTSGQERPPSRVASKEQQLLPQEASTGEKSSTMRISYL
hSSTR2, sequence (P30874 whole entry): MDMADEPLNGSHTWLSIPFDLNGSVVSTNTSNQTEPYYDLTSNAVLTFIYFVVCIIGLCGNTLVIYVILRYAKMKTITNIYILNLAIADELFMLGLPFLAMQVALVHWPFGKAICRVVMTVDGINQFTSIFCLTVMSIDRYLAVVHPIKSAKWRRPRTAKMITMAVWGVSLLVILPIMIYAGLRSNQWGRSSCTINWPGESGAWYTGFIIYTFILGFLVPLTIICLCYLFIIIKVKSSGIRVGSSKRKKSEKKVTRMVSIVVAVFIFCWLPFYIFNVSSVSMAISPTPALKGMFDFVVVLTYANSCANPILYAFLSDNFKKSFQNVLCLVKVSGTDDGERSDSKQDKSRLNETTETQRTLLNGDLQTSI
NK-1 receptor, sequence (P25103 whole entry): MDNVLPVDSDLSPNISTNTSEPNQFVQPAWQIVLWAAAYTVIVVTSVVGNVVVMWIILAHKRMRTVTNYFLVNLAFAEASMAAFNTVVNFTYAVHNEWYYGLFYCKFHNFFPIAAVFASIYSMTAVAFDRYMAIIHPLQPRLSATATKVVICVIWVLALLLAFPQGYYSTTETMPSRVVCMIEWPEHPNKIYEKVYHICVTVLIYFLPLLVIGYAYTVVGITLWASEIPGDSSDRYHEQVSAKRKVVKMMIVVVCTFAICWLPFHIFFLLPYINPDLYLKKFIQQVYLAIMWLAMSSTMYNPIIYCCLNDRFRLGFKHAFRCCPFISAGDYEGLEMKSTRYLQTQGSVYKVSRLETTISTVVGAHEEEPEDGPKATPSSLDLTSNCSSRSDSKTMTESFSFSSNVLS
hSSTR4, sequence (P31391 whole entry): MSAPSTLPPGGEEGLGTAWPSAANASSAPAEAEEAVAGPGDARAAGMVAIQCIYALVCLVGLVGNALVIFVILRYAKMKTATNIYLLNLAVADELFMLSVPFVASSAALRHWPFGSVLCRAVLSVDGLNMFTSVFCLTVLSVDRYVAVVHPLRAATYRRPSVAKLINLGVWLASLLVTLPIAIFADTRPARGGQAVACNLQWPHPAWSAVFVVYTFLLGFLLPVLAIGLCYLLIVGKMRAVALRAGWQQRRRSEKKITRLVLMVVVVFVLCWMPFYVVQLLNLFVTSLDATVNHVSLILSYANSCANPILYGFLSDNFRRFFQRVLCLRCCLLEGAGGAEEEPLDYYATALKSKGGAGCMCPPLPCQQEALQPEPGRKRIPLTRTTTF
hSSTR1, sequence (P30872 whole entry): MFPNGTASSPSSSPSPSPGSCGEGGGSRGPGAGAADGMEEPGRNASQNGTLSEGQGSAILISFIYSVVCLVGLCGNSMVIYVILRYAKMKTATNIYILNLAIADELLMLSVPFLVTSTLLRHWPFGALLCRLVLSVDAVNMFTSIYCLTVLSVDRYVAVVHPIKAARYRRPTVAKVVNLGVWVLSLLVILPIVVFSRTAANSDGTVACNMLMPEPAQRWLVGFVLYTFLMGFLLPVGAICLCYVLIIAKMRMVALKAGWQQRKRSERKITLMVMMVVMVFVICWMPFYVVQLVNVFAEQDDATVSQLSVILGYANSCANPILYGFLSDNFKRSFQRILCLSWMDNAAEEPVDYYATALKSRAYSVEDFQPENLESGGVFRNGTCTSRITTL
T1 sequence (P25103 whole entry): as the sequence (P25103 whole entry) above

IC50 [1]: 400 nM
Structure (SMILES): OC[C@@H]1C[C@H](OCc2ccccc2)[C@@H](OCc2ccccc2)[C@H](OCCc2c[nH]c3ccccc23)O1 [2-Indol-3-yl-ethyl-2,3,-di-O-benzyl-4-deoxy-β-D-glucopyranoside]

binding of the NK-1 receptor [2]: did not bind the NK-1 receptors
Structure (SMILES): Fc1ccc(CO[C@H]2[C@H](OCCc3c[nH]c4ccccc34)O[C@H](COCc3ccc4ccccc4c3)[C@@H](OCc3ccccc3)[C@@H]2OCc2ccccc2)cc1 [IV-84, (+)-2-(1H-inclol-3-yl) ethyl-3, li-di-O-Benzyl 2-O-(4-fluorobenzyl)-B-D-glucopyranoside]

binding of the NK-1 receptor [2]: did not bind the NK-1 receptors
IC50 [2, 11]: 209 nM
Structure (SMILES): CC(=O)NCCCCCOC[C@H]1O[C@@H](OCCc2c[nH]c3ccccc23)[C@H](OCc2ccc3ccccc3c2)[C@@H](OCc2ccccc2)[C@@H]1OCc1ccccc1 [IV-92, (+)-2-(1H-indol-3-yl)ethyl-6-O-(N-acetyl-5-aminopentyl)-3,4-di-O-benzyl-2-O-(2-naphthyl)methyl-β-D-glucopyranoside]

IC50 [3, 12]: 5600 nM
IC50 [3, 13]: 5600 nM
Structure (SMILES): CO[C@@H]1O[C@H](COCCCCCN)[C@@H](OCc2ccccc2)[C@H](OCc2c[nH]cn2)[C@H]1OCc1ccccc1 [IV-39, Methyl 2,4-di-O-benzyl-3-O-(4'-methylene-1H-imidazole)-6-O-(5'-aminopentyl)-β-D-glucopyranoside]

Ki ([4]; TABLE 3, read-out: hSSTR 1 Ki): 300 nM
Ki ([4]; read-out: Ki at SSTR 1): 300 nM
Ki ([5]; TABLE 3, read-out: hSSTR 2 Ki): 800 nM
Ki ([5]; read-out: Ki at SSTR 2): 800 nM
Ki ([6]; TABLE 3, read-out: hSSTR 3 Ki): 900 nM
Ki ([6]; read-out: Ki at SSTR 3): 900 nM
Ki ([7]; TABLE 3, read-out: hSSTR 4 Ki): 100 nM
Ki ([7]; read-out: Ki at SSTR 4): 100 nM
binding of SSTR5 [8]: failed to bind SSTR5
Ki [8]: > 10000 nM
Structure (SMILES): NCCCCCOC[C@@H]1O[C@H](OCCc2c[nH]c3ccccc23)[C@H](OCc2c[nH]cn2)[C@H](OCc2ccccc2)[C@H]1OCc1ccccc1 [IV-72, 2-(1H-indol-3-yl)ethyl 2-O-(4'-methylene-1H-imidazole)-3,4-di-O-benzyl-6-O-(5'-amino-pentyl)-β-L-mannopyranoside]

binding of the NK-1 receptor [2]: did not bind the NK-1 receptors
Structure (SMILES): Fc1ccc(COC[C@H]2O[C@@H](OCCc3c[nH]c4ccccc34)[C@H](OCc3ccc4ccccc4c3)[C@@H](OCc3ccccc3)[C@@H]2OCc2ccccc2)cc1 [IV-79, (+)-2-(1H-indol-3-yl)ethyl-3,4-di-O-benzyl-6-O-(4-fluorobenzyl)-2-O-(2-naphthyl)methyl-β-D-glucopyranoside]

Ki ([6]; TABLE 3, read-out: hSSTR 3 Ki): 6400 nM
Ki ([7]; TABLE 3, read-out: hSSTR 4 Ki): 2000 nM
IC50 [2, 11]: 150 nM
Structure (SMILES): NCCCCCOC[C@@H]1O[C@H](OCCc2c[nH]c3ccccc23)[C@@H](OCc2ccccc2)[C@H](OCc2ccccc2)[C@H]1OCc1ccccc1 [IV-11, 2-(1H-Indol-3-yl)ethyl 2,3,4-tri-O-benzyl-6-O-(5'-aminopentyl)-β-L-glucopyranoside]
hSSTR subtype affinity profile [9]: high affinities for hSSTR2 and hSSTR4 and a low affinity for SSTR1; also recorded: higher relative affinity for SSTR5 and a lesser relative affinity for SSTR3

IC50 ([2]; read-out: affinity at the NK-1 receptor): 27 nM
Structure (SMILES): CC(=O)NCCCCCOC[C@H]1O[C@@H](OCCc2c[nH]c3ccccc23)[C@H](OCc2ccccc2)[C@@H](OCc2ccccc2)[C@@H]1O [IV-99, (-)-2-(1H-indol-3-yl)ethyl-6-O-(N-acetyl-5-aminopentyl)-2,3-di-O-benzyl-β-D-glucopyranoside]

IC50 [3, 12]: 7000 nM
Structure (SMILES): NCCCCCCOC[C@H]1O[C@@H](OCCc2c[nH]c3ccccc23)[C@H](OCc2ccccc2)C[C@@H]1OCc1ccccc1 [III-5b, 2-(1H-Indol-3-yl)ethyl 2,4-Di-O-benzyl-3-deoxy-6-O-(6-aminohexyl)-β-D-glucopyranoside]

binding of the NK-1 receptor [2]: did not bind the NK-1 receptors
Structure (SMILES): Fc1ccc(OC[C@H]2O[C@@H](OCCc3c[nH]c4ccccc34)[C@H](OCc3ccc4ccccc4c3)[C@@H](OCc3ccccc3)[C@@H]2OCc2ccccc2)cc1 [IV-81, (+)-2-(1H-indol-3-yl)ethyl-3,4-di-O-benzyl-6-O-(4-fluorophenyl)-2-O-(2-naphthyl)methyl-β-D-glucopyranoside]

IC50 [10]: does not bind
IC50 [1]: 1000 nM
Structure (SMILES): CO[C@@H]1O[C@H](CO)[C@@H](OCc2ccccc2)[C@H](OCc2ccccc2)[C@H]1OCc1ccccc1 [III-46]

Structure (SMILES): CC(C)[C@@H]1NC(=O)[C@H](CCCCN)NC(=O)[C@@H](Cc2c[nH]c3ccccc23)NC(=O)[C@H](Cc2ccc(O)cc2)NC(=O)[C@H](C)N(C)C(=O)[C@H](Cc2ccccc2)NC1=O [MK 678, reference compound]
IC50 ([10]; read-out: IC50): 60 nM

IC50 [3, 12]: > 10000 nM
Structure (SMILES): CO[C@@H]1O[C@H](COCCCCCN)C[C@H](OCc2ccccc2)[C@H]1OCc1ccccc1 [III-10, Methyl 2,3-Di-O-benzyl-4-deoxy-6-O-(5-aminopentyl)-β-D-glucopyranoside]
activity / affinity at SRIF receptors of AtT-20 cells [3]: inactive

AtT-20 cells IC50 ([3]; TABLE 2 (Example 106)): DNB
IC50 [3, 14]: 13000 nM
Ki ([4]; TABLE 3, read-out: hSSTR 1 Ki): 2100 nM
affinity at SSTR 2 [5]: submicromolar affinities
Ki ([5]; TABLE 3, read-out: hSSTR 2 Ki): 600 nM
affinity at SSTR 3 [6]: submicromolar affinities
Ki ([6]; TABLE 3, read-out: hSSTR 3 Ki): 600 nM
affinity at SSTR 4 [7]: submicromolar affinities
Ki ([7]; TABLE 3, read-out: hSSTR 4 Ki): 500 nM
Ki [8]: 1300 nM
Ki ([9]; average over hSSTRs): 1000 nM
Structure (SMILES): NCCCCC(N)NC[C@H]1O[C@@H](OCCc2c[nH]c3ccccc23)[C@H](OCc2ccccc2)[C@@H](OCc2ccccc2)[C@@H]1OCc1ccccc1 (stereo partly drawn) [IV-42, 2-(1H-indol-3-yl)ethyl 2,3,4-tri-O-benzyl-6-N-(1',5'-diamino-pentyl)-β-D-glucopyranoside]
activity / affinity at SRIF receptors of AtT-20 cells [3]: did not result in an increase in affinity

IC50 [3, 12]: 5900 nM
IC50 [3, 14]: 5900 nM
IC50 [3, 13]: 5900 nM
Ki ([4]; TABLE 3, read-out: hSSTR 1 Ki): 2400 nM
Ki ([5]; TABLE 3, read-out: hSSTR 2 Ki): 4600 nM
Ki ([6]; TABLE 3, read-out: hSSTR 3 Ki): 3000 nM
Ki ([7]; TABLE 3, read-out: hSSTR 4 Ki): 2000 nM
Ki [8]: 3000 nM
hSSTR subtype affinity profile [9]: highest affinity for hSSTR4
Structure (SMILES): CO[C@@H]1O[C@H](COCCCCCN)[C@@H](OCc2ccccc2)[C@H](OCc2ccccc2)[C@H]1OCc1ccccc1 [III-8a, Methyl 2,3,4-Tri-O-benzyl-6-O-(5-aminopentyl)-β-D-glucopyranoside]

Ki ([6]; TABLE 3, read-out: hSSTR 3 Ki): 3300 nM
Ki ([7]; TABLE 3, read-out: hSSTR 4 Ki): 1900 nM
Structure (SMILES): NCCCCCOC[C@@H]1O[C@H](OCCc2c[nH]c3ccccc23)[C@H](OCc2ccccc2)[C@H](OCc2ccccc2)[C@H]1OCc1ccccc1 [IV-22, 2-(1H-Indol-3-yl)ethyl 2,3,4-tri-O-benzyl-6-O-(5'-aminopentyl)-β-L-mannopyranoside]
hSSTR subtype affinity profile [9]: high affinities for hSSTR2 and hSSTR4 and a low affinity for SSTR1

IC50 [3, 14]: 4100 nM
Ki ([4]; TABLE 3, read-out: hSSTR 1 Ki): 6800 nM
Ki ([5]; TABLE 3, read-out: hSSTR 2 Ki): 4600 nM
Ki ([6]; TABLE 3, read-out: hSSTR 3 Ki): 6200 nM
Ki ([7]; TABLE 3, read-out: hSSTR 4 Ki): 3000 nM
Ki [8]: 4000 nM
hSSTR subtype affinity profile [9]: atypically high affinity for hSSTR5
Structure (SMILES): NCCCCCOC[C@H]1O[C@@H](OCCc2c[nH]c3ccccc23)[C@H](OCc2c[nH]cn2)C[C@@H]1OCc1ccccc1 [IV-60, 2-(1H-Indol-3-yl)ethyl 2-O-(4'-methylene-1H-imidazole)-3-deoxy-4-O-benzyl-6-O-(5'-aminopentyl)-β-D-glucopyranoside]

IC50 [3, 12]: > 10000 nM
Structure (SMILES): CO[C@@H]1O[C@H](COCCCCCN)[C@@H](OCc2ccccc2)[C@H](OCc2ccccc2)[C@H]1OCc1c[nH]cn1 [IV-30, Methyl 2-O-(4'-methylene-1H-imidazole)-3,4-di-O-benzyl-6-O-(5'-aminopentyl)-β-D-glucopyranoside]
